Biological target: Apoptosis regulator Bcl-2 (Homo sapiens, UniProt P10415)
Test: FP values were measured as described above.

Apoptosis regulator Bcl-2, sequence (P10415 whole entry): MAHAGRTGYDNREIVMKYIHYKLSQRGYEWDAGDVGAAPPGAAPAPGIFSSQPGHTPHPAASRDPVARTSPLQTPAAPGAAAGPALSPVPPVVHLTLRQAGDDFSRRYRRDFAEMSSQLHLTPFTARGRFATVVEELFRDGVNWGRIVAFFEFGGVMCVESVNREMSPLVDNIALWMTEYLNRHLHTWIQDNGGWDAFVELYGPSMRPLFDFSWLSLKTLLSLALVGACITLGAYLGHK

O=C(NS(=O)(=O)c1cc([N+](=O)[O-])c2cnn(CC3CCOCC3)c2c1)c1ccc(N2CCN(CC3=C(c4ccc(Cl)cc4)CC4(CCC4)CC3)CC2)cc1Oc1cnc2[nH]ccc2c1
IC50: 1.6 nM
